System: E. faecium NCTC 7171
Experiment: Minimal-bactericidal concentration (MBC) determination
Type: cell-based, Enterococcus faecium
Protocol: The MBC of compound 75b was determined using S. aureus ATCC 29213, S. aureus […], and E. faecium NCTC 7171.
The MBC of indolyl antibiotic 75b was determined by incubation of 1.5×10^5 cells of S. aureus ATCC29213, S. aureus ATCC 27660, and E. faecium NCTC7171 at MIC, 2×MIC, and 4×MIC. Aliquots of 10 μL (corresponding to 1.5×10^4 cells) were plated on agar plates, incubated for 48 h, and colonies were counted in the presence and absence of […].

FC(F)(F)c1ccc(Oc2ccc(-c3noc(-c4ccc5[nH]ccc5c4)n3)cc2)cc1 [Compound 75b, 5-(1H-Indol-5-yl)-3-(4-(4-(trifluoromethyl)phenoxy)phenyl)-1,2,4-oxadiazole]
MBC, fold above the MIC: 2 fold
